Results as given in publication PMC4503722, “Novel Phenotypic Outcomes Identified for a Public Collection of Approved Drugs from a Publicly Accessible Panel of Assays” (PLoS ONE, 2015).
Where two headings read alike, the source gives them in different places.

Tests used:
[1] = system: endothelial tube formation in co-cultures of ECFCs and ADSCs treated with VEGF; assay: cells; assay type: cell-based, human
DLD-1 = assay: cells; assay type: cell-based
SW480 = assay: cells; assay type: cell-based
HCT116 = assay: cells; assay type: cell-based
[2] = system: HCT116 cells treated with a GSK3β inhibitor; assay: cells; assay type: cell-based
Colo320 = assay: cells; assay type: cell-based
HT-29 = assay: cells; assay type: cell-based
RKO = assay: cells; assay type: cell-based
SNU-C1 = assay: cells; assay type: cell-based
[3] = system: ECFC/ADSC co-culture cell nuclei number
[4] = assay number 26, GSK3b inhibitor pretreated

CCCCN1CCCC1C(=O)Nc1c(C)cc(C)cc1C (centres unmarked) [NCGC00160363-03]
VEGF_ADSC\ECFC Angio CD31 TubeArea IC50/EC50 [1]: > 10 µM
Basal_Viability ATP DLD-1 IC50/EC50 (DLD-1; assay number 23, basal): > 20 µM
Basal_Viability ATP SW480 IC50/EC50 (SW480; assay number 24, basal): > 20 µM
Basal_Viability ATP HCT116 IC50/EC50 (HCT116; assay number 25, basal): > 20 µM
GSK3b inh pretreated_Viability ATP HCT116 IC50/EC50 [2, 4]: > 20 µM
Basal_Viability ATP Colo 320 IC50/EC50 (Colo320; assay number 27, basal): > 20 µM
Basal_Viability ATP HT-29 IC50/EC50 (HT-29; assay number 28, basal): > 20 µM
Basal_Viability ATP RKO IC50/EC50 (RKO; assay number 29, basal): > 20 µM
Basal_Viability ATP SNU-C1 IC50/EC50 (SNU-C1; assay number 30, basal): > 20 µM
VEGF_ADSC\ECFC Angio Hoechst NucArea IC50/EC50 [3]: > 10 µM

CCCCCCCCCCCCCCCC(=O)OC/C=C(C)/C=C/C=C(C)/C=C/C1=C(C)CCCC1(C)C [NCGC00095056-04]
IC50 ([1]; read-out: VEGF_ADSC\ECFC Angio CD31 TubeArea summarized IC50): > 10 µM
IC50 (DLD-1; assay number 23, basal, read-out: Basal_Viability ATP DLD-1 summarized IC50): > 20 µM
IC50 (SW480; assay number 24, basal, read-out: Basal_Viability ATP SW480 summarized IC50): > 20 µM
IC50 (HCT116; assay number 25, basal, read-out: Basal_Viability ATP HCT116 summarized IC50): > 20 µM
IC50 ([2]; assay number 26, GSK3b inhibitor pretreated, read-out: GSK3b inh pretreated_Viability ATP HCT116 summarized IC50): > 20 µM
IC50 (Colo320; assay number 27, basal, read-out: Basal_Viability ATP Colo 320 summarized IC50): > 20 µM
IC50 (HT-29; assay number 28, basal, read-out: Basal_Viability ATP HT-29 summarized IC50): > 20 µM
IC50 (RKO; assay number 29, basal, read-out: Basal_Viability ATP RKO summarized IC50): > 20 µM
IC50 (SNU-C1; assay number 30, basal, read-out: Basal_Viability ATP SNU-C1 summarized IC50): > 20 µM
IC50 ([3]; read-out: VEGF_ADSC\ECFC Angio Hoechst NucArea summarized IC50): > 10 µM

CC(C)(CO)[C@@H](O)C(=O)NCCC(=O)NCCSSCCNC(=O)CCNC(=O)[C@H](O)C(C)(C)CO [NCGC00181028-02]
VEGF_ADSC\ECFC Angio CD31 TubeArea IC50/EC50 [1]: > 10 µM
Basal_Viability ATP DLD-1 IC50/EC50 (DLD-1; assay number 23, concentration response): > 20 µM
Basal_Viability ATP SW480 IC50/EC50 (SW480; assay number 24, concentration response): > 20 µM
Basal_Viability ATP HCT116 IC50/EC50 (HCT116; assay number 25, basal, concentration response): > 20 µM
GSK3b inh pretreated_Viability ATP HCT116 IC50/EC50 ([2]; assay number 26, GSK3b inhibitor pretreated, concentration response): > 20 µM
Basal_Viability ATP Colo 320 IC50/EC50 (Colo320; assay number 27, concentration response): > 20 µM
Basal_Viability ATP HT-29 IC50/EC50 (HT-29; assay number 28, concentration response): > 20 µM
Basal_Viability ATP RKO IC50/EC50 (RKO; assay number 29, concentration response): > 20 µM
Basal_Viability ATP SNU-C1 IC50/EC50 (SNU-C1; assay number 30, concentration response): > 20 µM
VEGF_ADSC\ECFC Angio Hoechst NucArea IC50/EC50 [3]: > 10 µM

Cc1cccc(Nc2cc(Cl)nc(SCC(=O)O)n2)c1C [NCGC00014702-15]
IC50/EC50, VEGF_ADSC\ECFC Angio CD31 TubeArea (assay number 2) [1]: > 10 µM
IC50/EC50, Basal_Viability ATP DLD-1 (assay number 23) (DLD-1; basal): > 20 µM
IC50/EC50, Basal_Viability ATP SW480 (assay number 24) (SW480; basal): > 20 µM
IC50/EC50, Basal_Viability ATP HCT116 (assay number 25) (HCT116; basal): > 20 µM
IC50/EC50, GSK3b inh pretreated_Viability ATP HCT116 (assay number 26) ([2]; GSK3b inh pretreated): > 20 µM
IC50/EC50, Basal_Viability ATP Colo 320 (assay number 27) (Colo320; basal): > 20 µM
IC50/EC50, Basal_Viability ATP HT-29 (assay number 28) (HT-29; basal): > 20 µM
IC50/EC50, Basal_Viability ATP RKO (assay number 29) (RKO; basal): > 20 µM
IC50/EC50, Basal_Viability ATP SNU-C1 (assay number 30) (SNU-C1; basal): > 20 µM
IC50/EC50, VEGF_ADSC\ECFC Angio Hoechst NucArea (assay number 3) [3]: > 10 µM

O=C1c2ccccc2C(=O)C1C(=O)C(c1ccccc1)c1ccccc1 [NCGC00160553-03]
IC50/EC50, VEGF_ADSC\ECFC Angio CD31 TubeArea (assay number 2) [1]: > 10 µM
IC50/EC50, Basal_Viability ATP DLD-1 (assay number 23) (DLD-1): 1.326 µM
IC50/EC50, Basal_Viability ATP SW480 (assay number 24) (SW480): 0.5361 µM
IC50/EC50, Basal_Viability ATP HCT116 (assay number 25) (HCT116): 0.5307 µM
IC50/EC50, GSK3b inh pretreated_Viability ATP HCT116 (assay number 26) [2]: 0.5674 µM
IC50/EC50, Basal_Viability ATP Colo 320 (assay number 27) (Colo320): 0.6211 µM
IC50/EC50, Basal_Viability ATP HT-29 (assay number 28) (HT-29): 4.4845 µM
IC50/EC50, Basal_Viability ATP RKO (assay number 29) (RKO): 1.5932 µM
IC50/EC50, Basal_Viability ATP SNU-C1 (assay number 30) (SNU-C1): 4.0068 µM
IC50/EC50, VEGF_ADSC\ECFC Angio Hoechst NucArea (assay number 3) [3]: > 10 µM

CCC(C(=O)OCCOCCN(CC)CC)c1ccccc1.O=C(O)CC(O)(CC(=O)O)C(=O)O (centres unmarked) [NCGC00160645-02]
VEGF_ADSC\ECFC Angio CD31 TubeArea IC50/EC50 [1]: > 10 µM
Basal_Viability ATP DLD-1 IC50/EC50 (DLD-1; assay number 23, basal): > 20 µM
Basal_Viability ATP SW480 IC50/EC50 (SW480; assay number 24, basal): > 20 µM
Basal_Viability ATP HCT116 IC50/EC50 (HCT116; assay number 25, basal): > 20 µM
GSK3b inh pretreated_Viability ATP HCT116 IC50/EC50 [2, 4]: > 20 µM
Basal_Viability ATP Colo 320 IC50/EC50 (Colo320; assay number 27, basal): > 20 µM
Basal_Viability ATP HT-29 IC50/EC50 (HT-29; assay number 28, basal): > 20 µM
Basal_Viability ATP RKO IC50/EC50 (RKO; assay number 29, basal): > 20 µM
Basal_Viability ATP SNU-C1 IC50/EC50 (SNU-C1; assay number 30, basal): > 20 µM
VEGF_ADSC\ECFC Angio Hoechst NucArea IC50/EC50 [3]: > 10 µM

CN1CCN(c2cc3c(nn2)Oc2ccccc2N3C)CC1 [NCGC00160646-02]
VEGF_ADSC\ECFC Angio CD31 TubeArea IC50/EC50 [1]: > 10 µM
Basal_Viability ATP DLD-1 IC50/EC50 (DLD-1; assay number 23, basal): > 20 µM
Basal_Viability ATP SW480 IC50/EC50 (SW480; assay number 24, basal): > 20 µM
Basal_Viability ATP HCT116 IC50/EC50 (HCT116; assay number 25, basal): > 20 µM
GSK3b inh pretreated_Viability ATP HCT116 IC50/EC50 [2, 4]: > 20 µM
Basal_Viability ATP Colo 320 IC50/EC50 (Colo320; assay number 27, basal): > 20 µM
Basal_Viability ATP HT-29 IC50/EC50 (HT-29; assay number 28, basal): > 20 µM
Basal_Viability ATP RKO IC50/EC50 (RKO; assay number 29, basal): > 20 µM
Basal_Viability ATP SNU-C1 IC50/EC50 (SNU-C1; assay number 30, basal): > 20 µM
VEGF_ADSC\ECFC Angio Hoechst NucArea IC50/EC50 [3]: > 10 µM

C=CCN1CC[C@]23CCCC[C@H]2[C@H]1Cc1ccc(O)cc13 [NCGC00162247-06]
IC50/EC50, VEGF_ADSC\ECFC Angio CD31 TubeArea (assay number 2) [1]: > 10 µM
IC50/EC50, Basal_Viability ATP DLD-1 (assay number 23) (DLD-1; basal): > 20 µM
IC50/EC50, Basal_Viability ATP SW480 (assay number 24) (SW480; basal): > 20 µM
IC50/EC50, Basal_Viability ATP HCT116 (assay number 25) (HCT116; basal): > 20 µM
IC50/EC50, GSK3b inh pretreated_Viability ATP HCT116 (assay number 26) ([2]; GSK3b inh pretreated): > 20 µM
IC50/EC50, Basal_Viability ATP Colo 320 (assay number 27) (Colo320; basal): > 20 µM
IC50/EC50, Basal_Viability ATP HT-29 (assay number 28) (HT-29; basal): > 20 µM
IC50/EC50, Basal_Viability ATP RKO (assay number 29) (RKO; basal): > 20 µM
IC50/EC50, Basal_Viability ATP SNU-C1 (assay number 30) (SNU-C1; basal): > 20 µM
IC50/EC50, VEGF_ADSC\ECFC Angio Hoechst NucArea (assay number 3) [3]: > 10 µM
